Measured values published in ChEMBL document CHEMBL3217639, “Property based optimisation of glucokinase activators discovery of the phase IIb clinical candidate AZD1656” (Medchemcomm, 2012).
Values after ≈ are worked out from the molar mass of the structure shown.

Experiments:
[1] = Lipophilicity, log D of the compound; type: physicochemical; conditions: octanol/water
Hexokinase-4 = molecular target: T1, Hexokinase-4 (Homo sapiens, UniProt P35557); test: […] of recombinant human pancreatic glucokinase by G-6-P dehydrogenase assay
T1 sequence (P35557 whole entry): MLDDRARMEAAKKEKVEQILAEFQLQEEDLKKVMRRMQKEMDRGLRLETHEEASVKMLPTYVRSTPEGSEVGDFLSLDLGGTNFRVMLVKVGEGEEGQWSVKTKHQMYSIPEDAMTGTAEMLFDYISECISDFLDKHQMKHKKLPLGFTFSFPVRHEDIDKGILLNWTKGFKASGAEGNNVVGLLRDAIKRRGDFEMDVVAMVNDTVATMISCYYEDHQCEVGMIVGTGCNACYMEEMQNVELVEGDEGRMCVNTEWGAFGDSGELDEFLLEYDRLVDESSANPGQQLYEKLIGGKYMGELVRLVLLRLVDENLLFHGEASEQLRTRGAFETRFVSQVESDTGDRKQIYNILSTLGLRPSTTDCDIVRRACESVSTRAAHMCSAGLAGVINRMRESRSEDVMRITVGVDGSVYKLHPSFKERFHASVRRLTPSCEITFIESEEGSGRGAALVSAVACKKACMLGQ

[2] = Apparent permeability from apical to basolateral side in MDCK cells expressing human MDR1; type: ADME, cell-based, Canis lupus familiaris; conditions: dog
[3] = Crystalline solubility of the compound; type: physicochemical
Salmonella typhimurium = test: Genotoxicity in Salmonella typhimurium by Ames test; type: toxicity, organism-based; conditions: salmonella enterica subsp. enterica serovar typhimurium
Rattus norvegicus [4] = test: Antidiabetic activity in high fat fed Zucker rat assessed as reduction of AUC of plasma glucose level at 1 mg/kg by oral glucose tolerance test; type: functional; set-up: scale not given: the % may be the effect or the level left
Canis familiaris = species: Canis familiaris; test: Unbound clearance in dog; type: ADME, organism-based, Canis lupus familiaris; conditions: in vivo
Rattus norvegicus [5] = species: Rattus norvegicus; test: Unbound clearance in rat; type: ADME, organism-based; conditions: in vivo
[6] = Volume of distribution at steady state in dog; type: ADME, organism-based, Canis lupus familiaris; conditions: in vivo, read-out: Vdss
[7] = Oral bioavailability in dog; type: ADME, organism-based, Canis lupus familiaris; conditions: in vivo
[8] = Volume of distribution at steady state in rat; type: ADME, organism-based; conditions: in vivo, read-out: Vdss
[9] = Clearance in dog; type: ADME, organism-based, Canis lupus familiaris; conditions: in vivo
[10] = molecular target: Voltage-gated inwardly rectifying potassium channel KCNH2 (Homo sapiens, UniProt Q12809)
Sequence of Voltage-gated inwardly rectifying potassium channel KCNH2 (Q12809 whole entry): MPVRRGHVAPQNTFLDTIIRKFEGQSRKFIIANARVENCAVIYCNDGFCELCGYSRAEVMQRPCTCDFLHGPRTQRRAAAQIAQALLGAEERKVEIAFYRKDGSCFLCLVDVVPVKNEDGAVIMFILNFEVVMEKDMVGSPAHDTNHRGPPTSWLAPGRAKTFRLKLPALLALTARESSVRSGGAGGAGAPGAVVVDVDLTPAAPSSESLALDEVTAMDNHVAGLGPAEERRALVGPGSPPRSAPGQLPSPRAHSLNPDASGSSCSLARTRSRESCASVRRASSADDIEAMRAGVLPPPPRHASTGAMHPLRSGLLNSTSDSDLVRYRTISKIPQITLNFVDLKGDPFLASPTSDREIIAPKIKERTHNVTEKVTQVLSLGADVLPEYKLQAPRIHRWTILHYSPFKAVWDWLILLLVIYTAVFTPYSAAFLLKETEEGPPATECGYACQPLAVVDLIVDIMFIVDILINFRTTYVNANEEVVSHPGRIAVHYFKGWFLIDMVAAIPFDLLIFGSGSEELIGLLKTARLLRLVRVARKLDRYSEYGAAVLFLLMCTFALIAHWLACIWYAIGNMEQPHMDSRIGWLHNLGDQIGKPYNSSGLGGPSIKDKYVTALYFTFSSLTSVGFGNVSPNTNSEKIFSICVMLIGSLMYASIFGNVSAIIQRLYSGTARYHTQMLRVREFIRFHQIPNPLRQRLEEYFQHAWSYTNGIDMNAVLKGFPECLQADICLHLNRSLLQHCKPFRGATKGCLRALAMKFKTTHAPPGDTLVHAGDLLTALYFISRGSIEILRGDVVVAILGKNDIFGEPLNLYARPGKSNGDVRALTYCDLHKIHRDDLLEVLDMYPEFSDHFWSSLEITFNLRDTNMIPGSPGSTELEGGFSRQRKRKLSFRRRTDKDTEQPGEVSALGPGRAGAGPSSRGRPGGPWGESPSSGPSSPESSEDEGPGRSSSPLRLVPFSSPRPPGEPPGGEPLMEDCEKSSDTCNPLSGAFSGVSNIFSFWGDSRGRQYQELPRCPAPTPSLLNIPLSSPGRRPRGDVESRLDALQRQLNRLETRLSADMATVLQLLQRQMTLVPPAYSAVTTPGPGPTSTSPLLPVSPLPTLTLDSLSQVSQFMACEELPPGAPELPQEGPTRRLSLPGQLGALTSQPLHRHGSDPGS

[11] = Oral bioavailability in rat; type: ADME, organism-based; conditions: in vivo
[12] = Clearance in rat; type: ADME, organism-based; conditions: in vivo
Rattus norvegicus [13] = test: Antidiabetic activity in high fat fed Zucker rat assessed as reduction of AUC of plasma glucose level at 3 mg/kg by oral glucose tolerance test; type: functional; set-up: scale not given: the % may be the effect or the level left

| SMILES | logD [1] | EC50 (Hexokinase-4) [nM] | Papp A→B [2] [×10⁻⁶ cm/s] | solubility thermodynamic [3] [µM] | IC50 [10] [nM] | further results |
| --- | --- | --- | --- | --- | --- | --- |
| COC[C@H](C)Oc1cc(Oc2ccc(C(=O)N3CCC3)cc2)cc(C(=O)Nc2ccn(C)n2)c1 | 2.5 | 37 | 12 | 490 (≈ 228 µg/mL) |  |  |
| Cc1nsc(N)n1 |  |  |  |  |  | Activity (Salmonella typhimurium): Non-toxic |
| COC[C@H](C)Oc1cc(Oc2ccc(C(=O)N3CCC3)cc2)cc(C(=O)Nc2cnc(C)cn2)c1 | 2.9 | 73 | 29 | 30 (≈ 14.3 µg/mL) |  |  |
| COC[C@H](C)Oc1cc(Oc2ncc(C(=O)N3CCC3)cc2Cl)cc(C(=O)Nc2cnc(C)cn2)c1 | 2.8 | 60 |  | 8 (≈ 4.1 µg/mL) |  |  |
| Cn1ccc(NC(=O)c2cc(Oc3ccc(C(=O)N4CCC4)cc3)cc(O[C@H]3CCOC3)c2)n1 | 2.2 | 70 | 6.4 | 180 (≈ 83.3 µg/mL) |  |  |
| CCn1ccc(N)n1 |  |  |  |  |  | Activity (Salmonella typhimurium): Toxic |
| COC[C@H](C)Oc1cc(Oc2cnc(C(=O)N3CCC3)cn2)cc(C(=O)Nc2cnc(C)cn2)c1 [AZD-1656] | 2.4 | 61 | 35 | 280 (≈ 134 µg/mL) | > 100000 | Activity (Rattus norvegicus [4]): 43%; CL free (Canis familiaris): 50 mL/min/kg; CL free (Rattus norvegicus [5]): 310 mL/min/kg; Vd [6]: 1.5 L/kg; bioavailability [7]: 100%; Vd [8]: 0.5 L/kg; clearance [9]: 8.1 mL/min/kg; bioavailability [11]: 100%; clearance [12]: 16 mL/min/kg |
| Nc1cc[nH]n1 |  |  |  |  |  | Activity (Salmonella typhimurium): Non-toxic |
| Cn1ccc(NC(=O)c2cc(Oc3ccc(C(=O)N4CCC4)cc3)cc(OC3CCOCC3)c2)n1 |  | 170 |  | 170 (≈ 81 µg/mL) |  |  |
| Cn1ccc(NC(=O)c2cc(Oc3ccc(C(=O)N4CCC4)cc3)cc(OC(CF)CF)c2)n1 | 2.6 | 47 | 7 | 11 (≈ 5.18 µg/mL) |  |  |
| Cc1nsc(NC(=O)c2cc(Oc3ccc(C(=O)N4CCC4)cc3)cc(O[C@@H](C)CO)c2)n1 | 2.7 | 35 | 5.2 | 17 (≈ 7.97 µg/mL) | 11000 |  |
| COC[C@H](C)Oc1cc(Oc2ccc(C(=O)N3CCC3)cn2)cc(C(=O)Nc2cnc(C)cn2)c1 |  | 370 |  |  |  |  |
| Cc1cnc(NC(=O)c2cc(Oc3ccc(C(=O)N4CCC4)cc3)cc(O[C@@H](C)CO)c2)cn1 | 2.4 | 61 | 4.1 | 17 (≈ 7.86 µg/mL) | 38000 |  |
| C[C@@H](CO)Oc1cc(Oc2ccc(C(=O)N3CCC3)cc2)cc(C(=O)Nc2cc[nH]n2)c1 | 2 | 53 | 0.8 | 670 (≈ 292 µg/mL) | > 100000 |  |
| CCn1ccc(NC(=O)c2cc(Oc3ccc(C(=O)N4CCC4)cc3)cc(O[C@@H](C)CO)c2)n1 | 2.4 | 31 | 1.6 | 280 (≈ 130 µg/mL) |  |  |
| Cc1cnc(N)cn1 |  |  |  |  |  | Activity (Salmonella typhimurium): Non-toxic |
| COC[C@H](C)Oc1cc(Oc2ccc(C(=O)N3CCC3)nc2)cc(C(=O)Nc2cnc(C)cn2)c1 | 2.9 | 36 | 18 | 21 (≈ 10 µg/mL) | 40000 |  |
| Nc1nccs1 [AMINOTHIAZOLE] |  |  |  |  |  | Activity (Salmonella typhimurium): Non-toxic |
| CC(C)n1ccc(N)n1 |  |  |  |  |  | Activity (Salmonella typhimurium): Toxic |
| CC(C)Oc1cc(Oc2ccc(C(=O)N3CCC3)cc2)cc(C(=O)Nc2ccn(C)n2)c1 | 3.3 | 110 |  | 125 (≈ 54.3 µg/mL) | 27000 |  |
| Cn1ccc(N)n1 |  |  |  |  |  | Activity (Salmonella typhimurium): Toxic |
| CC(C)n1ccc(NC(=O)c2cc(Oc3ccc(C(=O)N4CCC4)cc3)cc(O[C@@H](C)CO)c2)n1 | 2.8 | 73 |  | 44 (≈ 21.1 µg/mL) | 31000 |  |
| C[C@@H](CO)Oc1cc(Oc2ccc(C(=O)N3CCC3)cc2)cc(C(=O)Nc2nccs2)c1 | 3.1 | 32 |  | 9 (≈ 4.08 µg/mL) | 9000 |  |
| C[C@@H](CO)Oc1cc(Oc2ccc(C(=O)N3CCC3)cc2)cc(C(=O)Nc2ccn(C)n2)c1 |  |  | 1.2 | 350 (≈ 158 µg/mL) |  | CL free (Canis familiaris): 61 mL/min/kg; CL free (Rattus norvegicus [5]): 480 mL/min/kg; Activity (Rattus norvegicus [13]): 24% |
